From patent publication US20060111410A1, “Microbicide substances” (priority 2002, published 2006)

Assays:
[1] = tested on: Pseudomonas aeruginosa; test: Synergism BIT/TMAD, amounts required to suppress growth; format: cell-based; conditions: compound applied on its own
Description: (§1) The observed synergism of the mixtures according to the invention can be determined by the following mathematical approach (cf. F. C. Kull, P. C. Elisman, H. D. Sylwestrowicz and P. K. Mayer, Appl. Microbiol. 9, 538 (1961): [formula] where • Qa=the amount of component A in the active compound mixture required to achieve the desired effect, i.e. no microbial growth, • QA=the amount of component A which, applied on its own, suppresses the growth of the microorganisms, • Qb=the amount of component B in the active compound mixture which supresses the growth of the microorganisms, and • QB=the amount of component B which, applied on its own, suppresses the growth of the microorganisms.
(§2) A synergistic index of SI<1 indicates a synergistic effect for the active compound mixture.
Test germ: Pseudomonas aeruginosa
(§3) The numbers in brackets indicate the weight ratio of the active compounds in the mixtures. [formula] A=BIT/B=TMAD

[2] = tested on: Pseudomonas fluorescens; test: as above; format: cell-based; conditions: compound applied on its own
Description: as §1, §2
Test germ: Pseudomonas fluorescens
as §3

Row | SMILES | Amounts of the pure active compounds required to suppress growth [1] | Amounts of the pure active compounds required to suppress growth [2]
1 | O=c1[nH]sc2ccccc12 [BIT, 1,2-benzisothiazolinone] | 20 ppm | 20 ppm
2 | O=C1N(CO)C2C(N1CO)N(CO)C(=O)N2CO (stereo not shown) [TMAD, tetramethylolacetylenediurea] | 500 ppm | 500 ppm
